Like-named read-outs stand apart in the source and are kept apart here. Some results are limits rather than exact numbers.

One data set in a line: Kinetic Solubility. The class given is physicochemical. The settings on record: PBS pH7.4 (100 µM).
Data set [1] has as its target T1, GAK (Homo sapiens, UniProt O14976).
T1 sequence (O14976 1-1311): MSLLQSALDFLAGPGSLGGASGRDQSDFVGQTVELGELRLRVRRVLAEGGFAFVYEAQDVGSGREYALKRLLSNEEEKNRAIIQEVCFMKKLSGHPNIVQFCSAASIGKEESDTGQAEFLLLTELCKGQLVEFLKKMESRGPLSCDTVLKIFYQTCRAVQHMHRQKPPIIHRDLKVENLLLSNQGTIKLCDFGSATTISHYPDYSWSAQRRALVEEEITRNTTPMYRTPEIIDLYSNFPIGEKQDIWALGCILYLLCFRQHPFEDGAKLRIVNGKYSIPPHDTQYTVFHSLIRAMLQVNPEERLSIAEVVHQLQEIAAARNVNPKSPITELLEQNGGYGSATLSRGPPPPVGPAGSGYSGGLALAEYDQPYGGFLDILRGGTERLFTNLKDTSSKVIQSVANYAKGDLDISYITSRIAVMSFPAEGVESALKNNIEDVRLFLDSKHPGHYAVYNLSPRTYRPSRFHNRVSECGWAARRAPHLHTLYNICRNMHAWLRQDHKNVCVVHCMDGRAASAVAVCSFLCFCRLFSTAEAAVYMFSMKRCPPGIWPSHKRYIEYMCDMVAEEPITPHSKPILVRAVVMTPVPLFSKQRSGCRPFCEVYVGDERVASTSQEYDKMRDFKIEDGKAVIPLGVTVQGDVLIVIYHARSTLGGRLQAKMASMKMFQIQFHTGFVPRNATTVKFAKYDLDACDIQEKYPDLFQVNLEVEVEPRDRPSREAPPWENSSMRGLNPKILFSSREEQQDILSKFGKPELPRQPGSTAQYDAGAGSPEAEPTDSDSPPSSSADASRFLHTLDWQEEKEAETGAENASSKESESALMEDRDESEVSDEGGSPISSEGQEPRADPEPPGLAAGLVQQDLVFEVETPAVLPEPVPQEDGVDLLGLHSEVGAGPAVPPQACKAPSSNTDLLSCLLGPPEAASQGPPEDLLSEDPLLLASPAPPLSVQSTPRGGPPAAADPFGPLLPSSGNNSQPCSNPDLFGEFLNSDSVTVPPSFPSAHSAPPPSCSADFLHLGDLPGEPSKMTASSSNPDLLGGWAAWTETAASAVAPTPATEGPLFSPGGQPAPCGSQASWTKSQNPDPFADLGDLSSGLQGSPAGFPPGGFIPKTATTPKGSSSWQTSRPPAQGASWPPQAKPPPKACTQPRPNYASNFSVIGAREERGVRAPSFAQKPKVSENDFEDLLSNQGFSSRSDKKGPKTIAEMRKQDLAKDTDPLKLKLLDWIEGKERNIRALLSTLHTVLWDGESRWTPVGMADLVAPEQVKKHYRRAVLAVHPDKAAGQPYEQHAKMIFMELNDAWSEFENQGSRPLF
In words: live cell NanoBRET target engagement assay. The class given is cell-based. To be noted: for IC50: nanoBRET, mean average, n = 2; for IC50 values in cells: live cell NanoBRET assay.

A short description of data set [2]: mouse liver microsome metabolic stability. To be noted: for T1/2 Ratio: normalization with respect to internal control (propranolol); for half-life / CLint scaled: mouse. As for the experimental part: SGC-GAK-1 (1) was incubated with MLMs in the presence or absence of added NADPH, and the compound was quantified at various time points over an hour.
The metabolic stability of the 4-anilinoquinolines (8–13) were evaluated in MLMs (Table 1). Half-lives for metabolic clearance were normalized to propranolol in each experimental run to control for variations in the MLM preparations.

The next data set has as its target BMP2K (Homo sapiens, UniProt Q9NSY1). In words: NAK family TR-FRET binding displacement assay.
The target of data set [3] is T1, GAK. Description: TR-FRET ligand-binding displacement assay.
The next data set has as its target STK16 (Homo sapiens, UniProt O75716). In words: NAK family TR-FRET binding displacement assay.
Another data set concerns the target AAK1 (Homo sapiens, UniProt Q2M2I8). Description: NAK family TR-FRET binding displacement assay. To be noted: NAK family FRET screening.
Where [4] appears, read: pH 7.4, aqueous buffer, kinetic from dmso stock, read-out: Kinetic Solubility µM.
Setting [5] is: pH 7.4, aqueous buffer, kinetic from dmso stock, read-out: Kinetic Solubility µg/mL.
Where [6] appears, read: mouse liver microsomes, T1/2 (min), mouse liver microsomes with NADPH, mean average, n = 2.
The mark [7] stands for this setting: TR-FRET assay, read-out: Biochemical GAK Ki.
The mark [8] stands for this setting: NAK family FRET screening, read-out: Binding displacement assay STK16 Ki.
The mark [9] stands for this setting: NAK family FRET screening, read-out: Binding displacement assay GAK Ki.

Sequence of AAK1 (Q2M2I8 whole entry): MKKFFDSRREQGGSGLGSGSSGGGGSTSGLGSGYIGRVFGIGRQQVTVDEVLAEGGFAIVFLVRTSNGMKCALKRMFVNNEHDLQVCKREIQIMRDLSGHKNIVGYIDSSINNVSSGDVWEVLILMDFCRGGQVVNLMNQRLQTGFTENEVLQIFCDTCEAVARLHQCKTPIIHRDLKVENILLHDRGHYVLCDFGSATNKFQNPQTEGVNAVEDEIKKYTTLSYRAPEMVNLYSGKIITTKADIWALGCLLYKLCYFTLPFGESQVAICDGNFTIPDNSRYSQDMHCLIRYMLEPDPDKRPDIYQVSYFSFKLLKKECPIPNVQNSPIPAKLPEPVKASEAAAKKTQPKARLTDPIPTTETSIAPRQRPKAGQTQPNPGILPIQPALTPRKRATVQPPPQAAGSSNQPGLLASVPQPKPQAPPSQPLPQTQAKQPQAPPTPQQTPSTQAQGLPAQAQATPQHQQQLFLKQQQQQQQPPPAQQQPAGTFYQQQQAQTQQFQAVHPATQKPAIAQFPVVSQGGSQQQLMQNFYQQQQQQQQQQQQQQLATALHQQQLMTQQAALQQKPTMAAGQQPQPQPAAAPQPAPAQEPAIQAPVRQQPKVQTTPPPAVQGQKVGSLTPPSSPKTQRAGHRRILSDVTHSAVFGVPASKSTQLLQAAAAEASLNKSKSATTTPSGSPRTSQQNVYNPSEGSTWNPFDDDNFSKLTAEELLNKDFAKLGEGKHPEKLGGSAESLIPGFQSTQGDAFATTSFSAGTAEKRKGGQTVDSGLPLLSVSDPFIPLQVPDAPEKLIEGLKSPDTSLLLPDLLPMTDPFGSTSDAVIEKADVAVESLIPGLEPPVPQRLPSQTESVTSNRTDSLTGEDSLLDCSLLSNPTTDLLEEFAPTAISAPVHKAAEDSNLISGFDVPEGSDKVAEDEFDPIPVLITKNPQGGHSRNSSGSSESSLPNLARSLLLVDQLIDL
Sequence of BMP2K (Q9NSY1 whole entry): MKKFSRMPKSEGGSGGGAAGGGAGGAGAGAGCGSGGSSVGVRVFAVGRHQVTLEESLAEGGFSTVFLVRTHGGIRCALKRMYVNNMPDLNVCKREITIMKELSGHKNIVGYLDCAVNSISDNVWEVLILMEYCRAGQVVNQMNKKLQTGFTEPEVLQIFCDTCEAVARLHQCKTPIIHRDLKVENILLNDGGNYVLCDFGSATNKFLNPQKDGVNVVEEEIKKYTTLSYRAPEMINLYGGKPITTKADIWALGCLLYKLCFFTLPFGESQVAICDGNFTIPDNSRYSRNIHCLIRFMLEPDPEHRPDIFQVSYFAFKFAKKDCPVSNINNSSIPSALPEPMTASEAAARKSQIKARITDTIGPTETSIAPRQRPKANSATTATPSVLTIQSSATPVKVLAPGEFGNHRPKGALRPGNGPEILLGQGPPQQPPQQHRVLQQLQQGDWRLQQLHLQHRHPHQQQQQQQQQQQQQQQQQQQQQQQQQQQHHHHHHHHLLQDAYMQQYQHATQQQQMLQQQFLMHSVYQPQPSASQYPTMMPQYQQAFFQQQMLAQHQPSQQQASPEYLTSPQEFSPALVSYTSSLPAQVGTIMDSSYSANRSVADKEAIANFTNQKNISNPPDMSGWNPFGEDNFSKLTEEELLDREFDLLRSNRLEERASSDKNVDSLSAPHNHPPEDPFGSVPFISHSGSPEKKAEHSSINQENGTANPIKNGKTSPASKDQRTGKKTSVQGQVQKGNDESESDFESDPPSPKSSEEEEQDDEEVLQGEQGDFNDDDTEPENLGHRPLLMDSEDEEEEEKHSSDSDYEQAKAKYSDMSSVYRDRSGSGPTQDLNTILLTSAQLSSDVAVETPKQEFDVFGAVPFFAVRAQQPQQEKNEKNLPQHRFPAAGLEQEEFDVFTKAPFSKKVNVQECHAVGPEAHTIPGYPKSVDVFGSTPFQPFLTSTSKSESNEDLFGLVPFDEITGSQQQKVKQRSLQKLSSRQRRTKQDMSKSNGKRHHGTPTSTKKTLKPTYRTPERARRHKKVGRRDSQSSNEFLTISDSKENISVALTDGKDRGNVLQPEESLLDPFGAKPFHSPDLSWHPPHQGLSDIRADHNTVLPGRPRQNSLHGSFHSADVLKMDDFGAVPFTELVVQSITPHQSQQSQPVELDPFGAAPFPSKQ
Sequence of STK16 (O75716 whole entry): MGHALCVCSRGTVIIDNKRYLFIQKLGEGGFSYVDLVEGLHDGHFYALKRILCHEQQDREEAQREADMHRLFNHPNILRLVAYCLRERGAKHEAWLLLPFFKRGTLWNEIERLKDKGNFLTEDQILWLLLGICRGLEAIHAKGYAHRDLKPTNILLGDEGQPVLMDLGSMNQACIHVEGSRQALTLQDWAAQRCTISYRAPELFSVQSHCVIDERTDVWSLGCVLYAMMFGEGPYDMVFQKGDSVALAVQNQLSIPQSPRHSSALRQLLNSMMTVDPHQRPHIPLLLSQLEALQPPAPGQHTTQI

Consider `Brc1ccc2nccc(Nc3cccc4oncc34)c2c1` [Compound 22, N-(6-Bromoquinolin-4-yl)benzo[d]isoxazol-4-amine], for which the solubility kinetic in the data set “Kinetic Solubility” (setting [4]) came out at 3.6 µM; in “Kinetic Solubility” (setting [5]), 1.2 µg/mL. The compound further yielded an IC50 at GAK [1] of more than 5 µM. Besides, the “T1/2 Ratio” value in data set [2] (mouse liver microsomes) turned out to be 0.17. The compound further showed a half-life in data set [2] (setting [6]) of 1.4 min. Moreover, the Ki at BMP2K stood at 15 µM; at GAK [3] (setting [7]), 0.019 µM; at STK16, 15 µM; at AAK1 it was 4.6 µM.
`Brc1ccc2nccc(Nc3cccc4nsnc34)c2c1` [Compound 29, N-(6-Bromoquinolin-4-yl)benzo[c][1,2,5]thiadiazol-4-amine]: the values for the solubility kinetic in “Kinetic Solubility” (setting [4]) and in “Kinetic Solubility” (setting [5]) were 1.7 µM and 0.6 µg/mL, respectively. Moreover, the “IC50 values in cells” value at GAK [1] was “submicromolar”. Also, inhibition at GAK [1] was half-maximal at 0.4 µM (IC50). Further, in data set [2] (mouse liver microsomes), the “T1/2 Ratio” value amounted to 0.20. The compound also gave a half-life in data set [2] (setting [6]) of 1.6 min. Moreover, the Ki at BMP2K stood at 4.3 µM; on GAK [3] (setting [7]) it was 0.0053 µM; on STK16 (setting [8]), 22 µM; on AAK1 it was 2 µM.
Turning to `Fc1ccc2c(c1Nc1ccnc3ccc(Br)cc13)OCO2` [Compound 14, 6-Bromo-N-(5-fluorobenzo[d][1,3]dioxol-4-yl)quinolin-4-amine], the results for the solubility kinetic in the data set “Kinetic Solubility” (setting [4]) and in the data set “Kinetic Solubility” (setting [5]) were 8.8 µM and 3.2 µg/mL, respectively. Further, at GAK [1], the IC50 amounted to 0.12 µM. For the same compound, the “T1/2 Ratio (+) ABT” value in data set [2] (mouse liver microsomes, (+) ABT, normalized to propranolol) is on record as 0.18. Further, the “T1/2 Ratio (−) ABT” value in data set [2] (mouse liver microsomes, (−) ABT, normalized to propranolol) is given as 0.05. Besides, the “T1/2 Ratio” value in data set [2] (mouse liver microsomes) amounted to 0.27. Moreover, the CLint scaled in data set [2] (mouse liver microsomes, Clint (mL/min/kg) (+) ABT, mouse liver microsomes, (+) ABT) is 137 L/h/kg; in data set [2] (mouse liver microsomes, Clint (mL/min/kg) (−) ABT, (−) ABT) it was 453 L/h/kg. The half-life was determined as 2.5 min in data set [2] (mouse liver microsomes, T1/2 (min) (+) ABT, mouse liver microsomes, (+) ABT, mean average, n = 2); 0.74 min in data set [2] (mouse liver microsomes, T1/2 (min) (−) ABT, (−) ABT, mean average, n = 2); 1.8 min in data set [2] (setting [6]). Moreover, the Ki at BMP2K came out at 16 µM; on GAK [3] (setting [7]), 0.0014 µM; on STK16 (setting [8]) it was 20 µM; at AAK1, 9.7 µM.
For the compound `Brc1ccc2nccc(Nc3cccc4ncoc34)c2c1` [Compound 23, N-(6-Bromoquinolin-4-yl)benzo[d]oxazol-7-amine], the results for the solubility kinetic in “Kinetic Solubility” (setting [4]) and in “Kinetic Solubility” (setting [5]) were 25.9 µM and 8.8 µg/mL, respectively. The “IC50 values in cells” value on GAK [1] is listed as “submicromolar”. The midpoint of inhibition against GAK [1], the IC50, lay at 0.34 µM. Also, the “T1/2 Ratio” value in data set [2] (mouse liver microsomes) was determined as 0.21. Besides, the half-life in data set [2] (setting [6]) was found to be 1.7 min. The Ki on BMP2K is more than 100 µM; on GAK [3] (setting [9]), 0.011 µM; at STK16 (setting [8]) it was more than 100 µM; at AAK1 it was more than 100 µM.
With `Brc1ccc2nccc(Nc3cccc4scnc34)c2c1` [Compound 25, N-(6-Bromoquinolin-4-yl)benzo[d]thiazol-4-amine], the results for the solubility kinetic in “Kinetic Solubility” (setting [4]) and in the data set “Kinetic Solubility” (setting [5]) were 1.1 µM and 0.4 µg/mL, respectively. On GAK [1], this compound returned an IC50 of more than 5 µM. In addition, the “T1/2 Ratio” value in data set [2] (mouse liver microsomes) is listed as 0.32. Also, the half-life in data set [2] (setting [6]) worked out at 2.6 min. Moreover, the Ki is more than 100 µM on BMP2K, 0.026 µM at GAK [3] (setting [7]), more than 100 µM on STK16 (setting [8]) and 1.2 µM on AAK1.
As for `Brc1ccc2nccc(Nc3ccc4[nH]ncc4c3)c2c1` [Compound 37, 6-Bromo-N-(1H-indazol-5-yl)quinolin-4-amine], the solubility kinetic came to 12.3 µM in the data set “Kinetic Solubility” (setting [4]) and 4.2 µg/mL in “Kinetic Solubility” (setting [5]). For the same compound, the IC50 on GAK [1] was more than 5 µM. Besides, in data set [2] (mouse liver microsomes), the “T1/2 Ratio” value turned out to be 0.92. Further, the half-life in data set [2] (setting [6]) is 7.5 min. Further, the Ki at BMP2K is 0.66 µM; at GAK [3] (setting [7]), 0.047 µM; at STK16 (setting [8]) it was 5.7 µM; at AAK1 it was 0.52 µM.
As to “N-(1H-Indazol-4-yl)-6-(trifluoromethyl)quinolin-4-amine [Compound 33]”, in the data set “Kinetic Solubility”, the “Kinetic Solubility µg/mL” value is listed as 8.2 µg/mL. Besides, the solubility kinetic in the data set “Kinetic Solubility” (read-out: Kinetic Solubility µM) stood at 24.2 µM. Moreover, the IC50 against GAK [1] was more than 5 µM. The “T1/2” value in data set [2] (mouse liver microsomes with NADPH, mean average, n = 2) is 5.9 min. Also, in data set [2] (mouse liver microsomes), the “T1/2 Ratio” value is reported as 0.90. The Ki at BMP2K (NAK family FRET screening, read-out: Binding displacement assay BMP2K Ki) is 16 µM; at GAK [3] (setting [7]), 0.72 µM; on STK16 (setting [8]) it was 11 µM; at AAK1, 4.6 µM.
In turn, `COc1cccc(Nc2ccnc3ccc(Br)cc23)c1OC` [Compound 15, 6-Bromo-N-(2,3-dimethoxyphenyl)quinolin-4-amine] returned an IC50 on GAK [1] of more than 5 µM. In addition, in data set [2] (mouse liver microsomes), the “T1/2 Ratio” value amounted to 0.12. Besides, the half-life in data set [2] (setting [6]) was determined as 1 min. Besides, the inhibition constant (Ki) on BMP2K is 8.7 µM; at GAK [3] (setting [7]), 0.74 µM; on STK16 (setting [8]), more than 100 µM; at AAK1, 3.3 µM.
As to `Brc1ccc2nccc(Nc3cccc4nonc34)c2c1` [Compound 28, N-(6-Bromoquinolin-4-yl)benzo[c][1,2,5]oxadiazol-4-amine], the midpoint of inhibition against GAK [1], the IC50, lay at 2.5 µM. In addition, the “T1/2 Ratio” value in data set [2] (mouse liver microsomes) is 0.15. Besides, the half-life in data set [2] (setting [6]) stood at 1.2 min. In addition, the inhibition constant Ki was 13 µM at BMP2K, 0.041 µM on GAK [3] (setting [7]), 11 µM at STK16 (setting [8]) and 4.6 µM on AAK1.
Regarding `Brc1ccc2nccc(Nc3cccc4ncsc34)c2c1` [Compound 24, N-(6-Bromoquinolin-4-yl)benzo[d]thiazol-7-amine], the solubility kinetic in “Kinetic Solubility” (setting [4]) amounted to 8.6 µM; in “Kinetic Solubility” (setting [5]), 3.1 µg/mL. On GAK [1], the “IC50 values in cells” value was “submicromolar”. On GAK [1], this compound gave an IC50 of 0.22 µM. Also, in data set [2] (mouse liver microsomes), the “T1/2 Ratio” value is recorded as 0.68. Further, the half-life in data set [2] (setting [6]) turned out to be 5.3 min. The Ki at BMP2K was determined as 7.9 µM; on GAK [3] (setting [9]), 0.0041 µM; on STK16 it was 7.8 µM; at AAK1, 2.6 µM.
`Brc1ccc2nccc(Nc3cccc4cnoc34)c2c1` [Compound 21, N-(6-Bromoquinolin-4-yl)benzo[d]isoxazol-7-amine]: the solubility kinetic in “Kinetic Solubility” (setting [4]) came to 24.9 µM; in the data set “Kinetic Solubility” (setting [5]), 8.5 µg/mL. The same compound gave an IC50 on GAK [1] of 1.4 µM. Further, the “T1/2 Ratio” value in data set [2] (mouse liver microsomes) is 0.64. Further, the half-life in data set [2] (setting [6]) is 5.2 min. Moreover, the Ki on BMP2K was determined as 12 µM; at GAK [3] (setting [7]), 0.037 µM; on STK16 (setting [8]), 7.6 µM; at AAK1 it was 4.6 µM.
Consider `O=C1NCc2ccc(Nc3ccnc4ccc(Br)cc34)cc21` [Compound 38, 6-[(6-Bromoquinolin-4-yl)amino]-2,3-dihydro-1H-isoindol-1-one], for which the IC50 against GAK [1] was more than 5 µM. The “T1/2 Ratio” value in data set [2] (mouse liver microsomes) was 1.0. Also, in data set [2] (setting [6]), the half-life worked out at 8.1 min. Besides, the Ki stood at 0.98 µM at BMP2K, 0.062 µM on GAK [3] (setting [7]), 2.7 µM at STK16 (setting [8]) and 1.4 µM on AAK1.

(Values after paper PMC6891286, “Towards the Development of an In vivo Chemical Probe for Cyclin G Associated Kinase (GAK)” (Molecules, 2019).)
